Reference: ChEMBL document CHEMBL3045424, “Synthesis and antimalarial activity evaluation of some isoquine analogues” (2011)

How the values were obtained:
[1] = test system: Plasmodium falciparum; test: Antimalarial activity against chloroquine-sensitive Plasmodium falciparum 3D7 infected O positive human red blood cells assessed as dead rings and schizonts at 50 ug/ml after 40 hr by Giemsa staining; assay type: functional
[2] = test system: Plasmodium falciparum; test: Antimalarial activity against chloroquine-sensitive Plasmodium falciparum 3D7 infected O positive human red blood cells assessed as dead rings and schizonts at 0.4 ug/ml after 40 hr by Giemsa staining; assay type: functional

| Structure (SMILES) | Activity [1] | Activity [2] |
| --- | --- | --- |
| Oc1ccc(NCc2ccc(Nc3ccnc4cc(Cl)ccc34)cc2O)cc1 | 28.5% | – |
| Oc1cc(Nc2ccnc3cc(Cl)ccc23)ccc1CNc1ccc(Br)cc1F | 6.5% | – |
| Oc1cc(Nc2ccnc3cc(Cl)ccc23)ccc1CNC1CCNCC1 | 33% | – |
| OCCNCc1ccc(Nc2ccnc3cc(Cl)ccc23)cc1O | 36.5% | – |
| NC(=O)NCc1ccc(Nc2ccnc3cc(Cl)ccc23)cc1O | 24% | – |
| Oc1cc(Nc2ccnc3cc(Cl)ccc23)ccc1CNc1ccc(F)cc1 | 25.5% | – |
| O=C(O)c1ccc(NCc2ccc(Nc3ccnc4cc(Cl)ccc34)cc2O)cc1 | 34% | – |
| CCN(CC)CCCC(C)Nc1ccnc2cc(Cl)ccc12 (stereo not drawn) [CHLOROQUINE] | – | 68.5% |
